Data reported in patent publication US9890142B2, “PDE4 inhibitor” (Meiji Seika Pharma Co., Ltd., priority 2013, dated 2018).

tested on: PDE4; experiment: Evaluation of PDE4 inhibition (scintillation proximity assay); format: biochemical; conditions: inhibition rate relative to control, test compound at 1 μM
Procedure, shortened: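 PDE4 was incubated 120 min at room temperature with [3H]-cAMP and compound in 50 mM Tris-HCl pH 7.5, 8.3 mM MgCl2, 1.7 mM EDTA, 0.3 mg/mL BSA. Product captured on ZnSO4-containing YSi-SPA beads and counted; inhibition calculated against DMSO control after no-enzyme blank subtraction.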

Row | Compound | PDE4 inhibitory activity (1 μM (%))
1 | Cc1cc(Cl)cc2nc(N3CCNC[C@@H]3C)oc12 [Example 154, (S)-5-Chloro-7-methyl-2-(2-methylpiperazin-1-yl)benzoxazole] | 39%
2 | COc1c(Cl)cc(-c2nccs2)c2oc(N3CCNC[C@@H]3C)nc12 [Example 155, (S)-5-Chloro-4-methoxy-2-(2-methylpiperazin-1-yl)-7-(thiazol-2-yl)benzoxazole] | 96%
3 | COc1c(Cl)cc(-n2cccn2)c2oc(N3CCNC[C@@H]3C)nc12 [Example 156, (S)-5-Chloro-4-methoxy-2-(2-methylpiperazin-1-yl)-7-(1H-pyrazol-1-yl)benzoxazole] | 91%
4 | C[C@@H]1CNCCN1c1nc2c(OC(F)(F)F)c(Cl)cc(-c3ccccn3)c2o1 [Example 157, (R)-5-Chloro-2-(2-methylpiperazin-1-yl)-7-(pyridin-2-yl)-4-(trifluoromethoxy)benzoxazole] | 41%
5 | C[C@@H]1CNCCN1c1nc2c(OC(F)(F)F)c(Cl)cc(-c3nccs3)c2o1 [Example 158, (R)-5-Chloro-2-(2-methylpiperazin-1-yl)-7-(thiazol-2-yl)-4-(trifluoromethoxy)benzoxazole] | 88%
6 | C[C@@H]1CNCCN1c1nc2c(OC(F)(F)F)c(Cl)cc(-n3cccn3)c2o1 [Example 159, (R)-5-Chloro-2-(2-methylpiperazin-1-yl)-7-(1H-pyrazol-1-yl)-4-(trifluoromethoxy)benzoxazole] | 57%
7 | C[C@H]1CNCCN1c1nc2cc(Cl)c(OC(F)(F)F)c(-c3nccs3)c2o1 [Example 160, (S)-5-Chloro-2-(2-methylpiperazin-1-yl)-7-(thiazol-2-yl)-6-(trifluoromethoxy)benzoxazole] | 86%
8 | COc1c(Cl)cc2nc(N3CCNC[C@@H]3C)oc2c1C [Example 161, (S)-5-Chloro-6-methoxy-7-methyl-2-(2-methylpiperazin-1-yl)benzoxazole] | 19%
9 | Cc1c(O)c(Cl)cc2nc(N3CCNC[C@@H]3C)oc12 [Example 162, (S)-5-Chloro-6-hydroxy-7-methyl-2-(2-methylpiperazin-1-yl)benzoxazole] | 35%
10 | C[C@H]1CNCCN1c1nc2c(Br)cc(Cl)cc2o1 [Example 163, (S)-4-Bromo-6-chloro-2-(2-methylpiperazin-1-yl)benzoxazole] | 52%
11 | C[C@H]1CNCCN1c1nc2c(-c3ccco3)cc(Cl)cc2o1 [Example 164, (S)-6-Chloro-4-(furan-2-yl)-2-(2-methylpiperazin-1-yl)benzoxazole] | 75%
12 | C[C@@H]1CNCCN1c1nc2c(-c3ccco3)cc(Cl)cc2o1 [Example 165, (R)-6-Chloro-4-(furan-2-yl)-2-(2-methylpiperazin-1-yl)benzoxazole] | 31%
13 | C[C@H]1CNCCN1c1nc2c(-n3cccn3)cc(Cl)cc2o1 [Example 166, (S)-6-Chloro-2-(2-methylpiperazin-1-yl)-4-(1H-pyrazol-1-yl)benzoxazole] | 71%
14 | C[C@H]1CNCCN1c1nc2cc(Br)ccc2o1 [Example 167, (S)-5-Bromo-2-(2-methylpiperazin-1-yl)benzoxazole] | 16%
15 | COc1cc(C#N)cc2nc(N3CCNC[C@@H]3C)oc12 [Example 168, (S)-5-Cyano-7-methoxy-2-(2-methylpiperazin-1-yl)benzoxazole] | 13%
16 | COc1c(Cl)cc2nc(N3CCNC[C@@H]3C)oc2c1OC [Example 169, (S)-5-Chloro-6,7-dimethoxy-2-(2-methylpiperazin-1-yl)benzoxazole] | 22%
17 | Cc1cc2oc(N3CCNC[C@@H]3C)nc2cc1Cl [Example 170, (S)-5-Chloro-6-methyl-2-(2-methylpiperazin-1-yl)benzoxazole] | 15%
18 | COc1cc2oc(N3CCNC[C@@H]3C)nc2cc1Cl [Example 171, (S)-5-Chloro-6-methoxy-2-(2-methylpiperazin-1-yl)benzoxazole] | 14%
19 | Cc1cc(N2CCCC2)cc2nc(N3CCNC[C@@H]3C)oc12 [Example 172, (S)-7-Methyl-5-(pyrrolidin-1-yl)-2-(2-methylpiperazin-1-yl)benzoxazole] | <10%
20 | Cc1cc(-c2ccsc2)cc2nc(N3CCNC[C@@H]3C)oc12 [Example 173, (S)-7-Methyl-5-(thiophen-3-yl)-2-(2-methylpiperazin-1-yl)benzoxazole] | 35%
21 | CCc1cc(Cl)cc2nc(N3CCNC[C@H]3C)oc12 [Example 174, (R)-5-Chloro-7-ethyl-2-(2-methylpiperazin-1-yl)benzoxazole] | 21%
22 | FC(F)(F)Oc1c(Cl)cc(-c2nccs2)c2oc(N3CCNCC3)nc12 [Example 175, 5-Chloro-2-(piperazin-1-yl)-7-(thiazol-2-yl)-4-(trifluoromethoxy)benzoxazole] | 96%
23 | C[C@@H]1CN(c2nc3c(OC(F)(F)F)c(Cl)cc(-c4nccs4)c3o2)CCN1 [Example 176, (R)-5-Chloro-2-(3-methylpiperazin-1-yl)-7-(thiazol-2-yl)-4-(trifluoromethoxy)benzoxazole] | 91%
24 | C[C@H]1CN(c2nc3c(OC(F)(F)F)c(Cl)cc(-c4nccs4)c3o2)CCN1 [Example 177, (S)-5-Chloro-2-(3-methylpiperazin-1-yl)-7-(thiazol-2-yl)-4-(trifluoromethoxy)benzoxazole] | 93%
25 | C[C@@H]1CNCCN1c1nc2c(C(F)(F)F)c(Cl)cc(-c3ccccn3)c2o1 [Example 178, (R)-5-Chloro-2-(2-methylpiperazin-1-yl)-7-(pyridin-2-yl)-4-(trifluoromethyl)benzoxazole] | 33%
26 | C[C@@H]1CNCCN1c1nc2c(C(F)(F)F)c(Cl)cc(-c3nccs3)c2o1 [Example 179, (R)-5-Chloro-2-(2-methylpiperazin-1-yl)-7-(thiazol-2-yl)-4-(trifluoromethyl)benzoxazole] | 79%
27 | C[C@@H]1CNCCN1c1nc2c(C(F)(F)F)c(Cl)cc(-n3cccn3)c2o1 [Example 180, (R)-5-Chloro-2-(2-methylpiperazin-1-yl)=7-(1H-pyrazol-1-yl)-4-(trifluoromethyl)benzoxazole] | 43%
